Data: ChEMBL document CHEMBL1158292, “Progress in the discovery of biosynthetic anticancer drugs” (1996)

Legend:
Type in all cases: functional
[1] = test system: B16; test: In vivo antineoplastic activity against mouse B16 cells at 11 ug/kg
[2] = test system: P388; test: Antineoplastic activity against mouse P388 cells at 3 mg/kg relative to control
[3] = test system: P388; test: Antineoplastic activity against mouse P388 cells at 32 mg/kg relative to control
[4] = Growth inhibition of human lung cancer cells at 10^-10 M; settings: Cancer cell lines, read-out: GI
[5] = Growth inhibition of human colon cancer cells at 10^-10 M; settings: Cancer cell lines, read-out: GI
[6] = Growth inhibition of human renal cancer cells at 10^-10 M; settings: Cancer cell lines, read-out: GI
[7] = Growth inhibition of human ovarian cancer cells at 10^-10 M; settings: Cancer cell lines, read-out: GI
[8] = test system: OVCAR-3; test: In vivo antineoplastic activity against human OVCAR-3 cells at 25 ug/kg
[9] = Growth inhibition of human breast cancer cells at 10^-10 M; settings: Cancer cell lines, read-out: GI
[10] = test system: P388; test: Antineoplastic activity against mouse P388 cells
[11] = test system: P388; test: Antineoplastic activity against mouse P388 cells at 12.5 mg/kg relative to control
[12] = test system: P388; test: Antineoplastic activity against mouse P388 cells at 100 mg/kg relative to control

CC[C@H](C)[C@@H]([C@@H](CC(=O)N1CCC[C@H]1[C@H](OC)[C@@H](C)C(=O)N[C@@H](Cc1ccccc1)c1nccs1)OC)N(C)C(=O)[C@@H](NC(=O)[C@H](C(C)C)N(C)C)C(C)C [DOLASTATIN-10]
Activity [1]: 80%

C=C1C(=O)O[C@@H]2C[C@@H](C)[C@@H]3C=CC(=O)[C@@]3(C)[C@@H](O)[C@H]12 [HELENALIN]
T/C [2]: 220

C=C1C(=O)O[C@@H]2C(=O)[C@@H](C)[C@@H]3C=CC(=O)[C@@]3(C)[C@@H](OC(=O)/C(C)=C\C)[C@H]12 [MULTISTATIN]
T/C [3]: 131

C=C(Cl)/C=C/[C@H](O)CC(=C)C[C@H]1O[C@@H]2[C@H](C)[C@@H](OC(=O)C[C@@H]3C[C@@H](OC(C)=O)C[C@]4(C[C@](C)(O)C[C@@H](CC(=C)[C@H](C)[C@@H](OC(C)=O)[C@H](C)C(=O)C[C@H]5C[C@@H](OC)C[C@]6(C[C@H](O)C[C@@H](/C=C\CCC[C@@H]7O[C@@](O)(C[C@@H](O)[C@@H]7C)[C@H]2O)O6)O5)O4)O3)[C@@H]1O
inhibition of growth at 0.0001 µM [4]: 50%
inhibition of growth at 0.0001 µM [5]: 50%
inhibition of growth at 0.0001 µM [6]: 50%
inhibition of growth at 0.0001 µM [7]: 50%
Activity [8]: 70%
inhibition of growth at 0.0001 µM [9]: 50%

C[C@@H]1[C@]2(O[C@H]3C=C4[C@@H]5CC[C@H]6Cc7nc8c(nc7C[C@]6(C)[C@H]5C[C@@H](O)[C@]4(C)[C@]31O)C[C@@H]1CC[C@H]3C4=CC[C@@H]5[C@H](C)[C@@]6(OC[C@]45C(=O)C[C@@H]3[C@@]1(C)C8)OC(C)(C)C[C@H]6O)O[C@](C)(CO)C[C@H]2O [CEPHALOSTATIN 1]
ED50 [10]: 1 ×10⁻⁹ ug/ml

C=C1C(=O)O[C@@H]2[C@H](O)[C@@H](C)[C@@H]3C=CC(=O)[C@@]3(C)[C@@H](OC(=O)/C(C)=C\C)[C@H]12 [MULTIGILIN]
T/C [11]: 164

NCCS(=O)(=O)O [TAURINE]
T/C [12]: 123
